This is an account of results in patent US20180265515A1 (Genentech, Inc., priority 2015, published 2018).

Assay [1] deals with T1, isolated recombinant JAK1 kinase domain (Homo sapiens, UniProt P23458).
T1 construct: The activity of the isolated recombinant JAK1 and JAK2 kinase domain was measured
Nature of the assay: JAK1 enzyme assay (Caliper LabChip, Ki). It counts as biochemical. Particulars: recombinant JAK1 kinase domain, 25 μM ATP. The method, then: (§1) JAK Enzyme Assays were Carried Out as Follows:
(§2) The activity of the isolated recombinant JAK1 and JAK2 kinase domain was measured by monitoring phosphorylation of a peptide derived from JAK3 (Val-Ala-Leu-Val-Asp-Gly-Tyr-Phe-Arg-Leu-Thr-Thr, fluorescently labeled on the N-terminus with 5-carboxyfluorescein) using the Caliper LabChip® technology (Caliper Life Sciences, Hopkinton, Mass.). […] Reactions were incubated at 22° C. in 384-well polypropylene microtiter plates for 30 minutes and then stopped by addition of 25 μL of an EDTA containing solution (100 mM HEPES buffer (pH 7.2), 0.015% Brij-35, 150 mM EDTA), resulting in a final EDTA concentration of 50 mM. After termination of the kinase reaction, the proportion of phosphorylated product was determined as a fraction of total peptide substrate using the Caliper LabChip® 3000 according to the manufacturer's specifications. Ki values were then determined using the Morrison tight binding model (Morrison, J. F., Biochim. Biophys. Acta. 185:269-296 (1969); William, J. W. and Morrison, J. F., Meth. Enzymol., 63:437-467 (1979)) modified for ATP-competitive inhibition [Ki=Ki,app/(1+[ATP]/Km,app)].

The target of assay [2] is T2, isolated recombinant JAK2 kinase domain (Homo sapiens, UniProt O60674).
T2 construct: The activity of the isolated recombinant JAK1 and JAK2 kinase domain was measured
T2 sequence (O60674 849-1124 limits assumed): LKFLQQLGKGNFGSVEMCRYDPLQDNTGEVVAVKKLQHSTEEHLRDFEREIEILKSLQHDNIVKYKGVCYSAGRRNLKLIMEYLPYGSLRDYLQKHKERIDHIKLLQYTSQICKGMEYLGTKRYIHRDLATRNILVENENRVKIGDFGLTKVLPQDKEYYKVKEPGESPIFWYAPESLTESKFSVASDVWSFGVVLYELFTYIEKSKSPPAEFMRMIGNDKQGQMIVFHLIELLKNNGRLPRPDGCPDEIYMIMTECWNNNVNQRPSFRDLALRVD
In words: JAK2 enzyme assay (Caliper LabChip, Ki). It counts as biochemical. Particulars: 25 μM ATP. The method, then:
as §1, §2

Assay [3] deals with JAK1-dependent STAT6 phosphorylation downstream of IL-13 stimulation in BEAS-2B human bronchial epithelial cells. In words: JAK1 pathway assay in BEAS-2B cells (IL-13 stimulated STAT6 phosphorylation, MSD). It counts as cell-based. As to conditions: read-out: P-STAT6 BEAS2B + IL13 IC50. The method, then: JAK1 Pathway Assay in Cell Lines was Carried Out as Follows:
Inhibitor potency (EC50) was determined in cell-based assays designed to measure JAK1 dependent STAT phosphorylation. As noted above, inhibition of IL-4, IL-13, and IL-9 signaling by blocking the Jak/Stat signaling pathway can alleviate asthmatic symptoms in pre-clinical lung inflammation models (Mathew et al., 2001, J Exp Med 193(9): 1087-1096; Kudlacz et. al., 2008, Eur J. Pharmacol 582(1-3): 154-161).
In one assay approach, TF-1 human erythroleukemia cells obtained from the American Type Culture Collection (ATCC; Manassas, Va.) were used to measure JAK1-dependent STAT6 phosphorylation downstream of IL-13 stimulation. Prior to use in the assays, TF-1 cells were starved of GM-CSF overnight in OptiMEM medium (Life Technologies, Grand Island, N.Y.) supplemented with 0.5% charcoal/dextran stripped fetal bovine serum (FBS), 0.1 mM non-essential amino acids (NEAA), and 1 mM sodium pyruvate. The assays were run in 384-well plates in serum-free OptiMEM medium using 300,000 cells per well. In a second assay approach, BEAS-2B human bronchial epithelial cells obtained from ATCC were plated at 100,000 cells per well of a 96-well plate one day prior to the experiment. The BEAS-2B assay was run in complete growth medium (bronchial epithelial basal medium plus bulletkit; Lonza; Basel, Switzerland).
Test compounds were serially diluted 1:2 in DMSO and then diluted 1:50 in medium just before use. Diluted compounds were added to the cells, for a final DMSO concentration of 0.2%, and incubated for 30 min (for the TF-1 assay) or 1 hr (for the BEAS-2B assay) at 37° C. Then, cells were stimulated with human recombinant cytokine at their respective EC90 concentrations, as previously determined for each individual lot. Cells were stimulated with IL-13 (R&D Systems, Minneapolis, Minn.) for 15 min at 37° C. The TF-1 cell reactions were stopped by the direct addition of 10× lysis buffer (Cell Signaling Technologies, Danvers, Mass.), whereas the BEAS-2B cell incubations were halted by the removal of medium and addition of 1× lysis buffer. The resultant samples were frozen in the plates at −80° C. Compound mediated inhibition of STAT6 phosphorylation was measured in the cell lysates using MesoScale Discovery (MSD) technology (Gaithersburg, Md.). EC50 values were determined as the concentration of compound required for 50% inhibition of STAT phosphorylation relative to that measured for the DMSO control.

One may read the Ki as the equilibrium dissociation constant of an inhibitor or competing ligand from its target. A word on the IC50: it is the concentration that gives 50% inhibition.

T1 sequence (P23458 875-1153 limits assumed): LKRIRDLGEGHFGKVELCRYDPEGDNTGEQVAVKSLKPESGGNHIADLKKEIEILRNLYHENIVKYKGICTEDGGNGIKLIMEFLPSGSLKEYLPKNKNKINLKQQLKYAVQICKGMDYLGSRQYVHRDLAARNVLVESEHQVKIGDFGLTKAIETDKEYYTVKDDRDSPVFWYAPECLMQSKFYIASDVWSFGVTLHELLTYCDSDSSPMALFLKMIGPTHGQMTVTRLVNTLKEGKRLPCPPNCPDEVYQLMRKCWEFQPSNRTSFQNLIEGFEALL

For the molecule `CSc1ccc(OC(F)F)c(-c2nn(CC(=O)N3CCC(N4CCCC(C#N)C4)CC3)cc2NC(=O)c2cnn3cccnc23)c1` (stereo not drawn) [Example 31, N-[1-[2-[4-(3-cyano-1-piperidyl)-1-piperidyl]-2-oxo-ethyl]-3-[2-(difluoromethoxy)-5-methylsulfanyl-phenyl]pyrazol-4-yl]pyrazolo[1,5-a]pyrimidine-3-carboxamide], the inhibitory constant (Ki) in assay [1] is 0.19 nM; in assay [2] it was 0.25 nM. For the same molecule, in assay [3], the half-inhibitory concentration (IC50) was 8.3 nM.

`CSc1ccc(OC(F)F)c(-c2nn(CC(=O)N3CCC(N4CCC(C#N)C4)CC3)cc2NC(=O)c2cnn3cccnc23)c1` (stereo not drawn) [Example 32, N-[1-[2-[4-(3-cyanopyrrolidin-1-yl)-1-piperidyl]-2-oxo-ethyl]-3-[2-(difluoromethoxy)-5-methylsulfanyl-phenyl]pyrazol-4-yl]pyrazolo[1,5-a]pyrimidine-3-carboxamide]: the Ki in assay [1] came out at 0.23 nM; in assay [2], 0.33 nM. The IC50 in assay [3] came to 11 nM.

Consider `CSc1ccc(OC(F)F)c(-c2nn(CC(=O)N3CCN(CC4CCN(CC(=O)N(C)C)CC4)CC3)cc2NC(=O)c2cnn3cccnc23)c1` [Example 33, N-[3-[2-(difluoromethoxy)-5-methylsulfanyl-phenyl]-1-[2-[4-[[1-[2-(dimethylamino)-2-oxo-ethyl]-4-piperidyl]methyl]piperazin-1-yl]-2-oxo-ethyl]pyrazol-4-yl]pyrazolo[1,5-a]pyrimidine-3-carboxamide], for which the Ki in assay [1] was determined as 0.38 nM; in assay [2], 0.73 nM. Also, in assay [3], the half-maximal inhibitory concentration (IC50) turned out to be 35 nM.

As to `CSc1ccc(OC(F)F)c(-c2nn(CC(=O)N3CC4CCN(C)C4C3)cc2NC(=O)c2cnn3cccnc23)c1` (stereo not drawn) [Example 34, N-[3-[2-(difluoromethoxy)-5-methylsulfanyl-phenyl]-1-[2-(1-methyl-2,3,3a,4,6,6a-hexahydropyrrolo[2,3-c]pyrrol-5-yl)-2-oxo-ethyl]pyrazol-4-yl]pyrazolo[1,5-a]pyrimidine-3-carboxamide], the values for the Ki in assay [1] and in assay [2] were 0.28 nM and 0.3 nM, respectively. Also, the IC50 in assay [3] was found to be 5.3 nM.

As to `CSc1ccc(OC(F)F)c(-c2nn(CC(=O)N3CC4CCCNC4C3)cc2NC(=O)c2cnn3cccnc23)c1` (stereo not drawn) [Example 35, N-[1-[2-(1,2,3,4,4a,5,7,7a-octahydropyrrolo[3,4-b]pyridin-6-yl)-2-oxo-ethyl]-3-[2-(difluoromethoxy)-5-methylsulfanyl-phenyl]pyrazol-4-yl]pyrazolo[1,5-a]pyrimidine-3-carboxamide], the inhibition constant (Ki) in assay [1] worked out at 0.39 nM; in assay [2], 0.4 nM. The IC50 in assay [3] is 19 nM.

For `CSc1ccc(OC(F)F)c(-c2nn(CCNC3COC3)cc2NC(=O)c2cnn3cccnc23)c1` [Example 36, N-[3-[2-(difluoromethoxy)-5-methylsulfanyl-phenyl]-1-[2-(oxetan-3-ylamino)ethyl]pyrazol-4-yl]pyrazolo[1,5-a]pyrimidine-3-carboxamide], the inhibitory constant (Ki) in assay [1] was determined as 0.36 nM; in assay [2] it was 0.29 nM. In assay [3], the IC50 is 9.8 nM.

As to `CSc1ccc(OC(F)F)c(-c2nn(C[C@H]3CCCN3C)cc2NC(=O)c2cnn3cccnc23)c1` [Example 37, N-[3-[2-(difluoromethoxy)-5-methylsulfanyl-phenyl]-1-[[(2R)-1-methylpyrrolidin-2-yl]methyl]pyrazol-4-yl]pyrazolo[1,5-a]pyrimidine-3-carboxamide], the Ki in assay [1] was found to be 0.22 nM; in assay [2] it was 0.48 nM. Further, the IC50 in assay [3] is 9.9 nM.

For the molecule `CSc1ccc(OC(F)F)c(-c2nn(CCN[C@@H]3CCCOC3)cc2NC(=O)c2cnn3cccnc23)c1` [Example 38, N-[3-[2-(difluoromethoxy)-5-methylsulfanyl-phenyl]-1-[2-[[(3R)-tetrahydropyran-3-yl]amino]ethyl]pyrazol-4-yl]pyrazolo[1,5-a]pyrimidine-3-carboxamide], the Ki is 0.23 nM in assay [1] and 0.19 nM in assay [2]. For the same molecule, the IC50 in assay [3] was determined as 20 nM.

Take `CSc1ccc(OC(F)F)c(-c2nn(CC(=O)N3CC4CCCN(C)C4C3)cc2NC(=O)c2cnn3cccnc23)c1` (stereo not drawn) [Example 39, N-[3-[2-(difluoromethoxy)-5-methylsulfanyl-phenyl]-1-[2-(1-methyl-3,4,4a,5,7,7a-hexahydro-2H-pyrrolo[3,4-b]pyridin-6-yl)-2-oxo-ethyl]pyrazol-4-yl]pyrazolo[1,5-a]pyrimidine-3-carboxamide]: the Ki turned out to be 0.3 nM in assay [1] and 0.33 nM in assay [2]. Further, in assay [3], the half-inhibitory concentration (IC50) was found to be 19 nM.

`CSc1ccc(OC(F)F)c(-c2nn(CCN[C@H]3C[C@H](O)C3)cc2NC(=O)c2cnn3cccnc23)c1` [Example 40]: the Ki came out at 0.28 nM in assay [1] and 0.25 nM in assay [2]. Besides, the IC50 in assay [3] stood at 9.5 nM.

Regarding `CSc1ccc(OC(F)F)c(-c2nn(CC(=O)N3CCC(NCC4(C#N)CC4)CC3)cc2NC(=O)c2cnn3cccnc23)c1` [Example 41, N-[1-[2-[4-[(1-cyanocyclopropyl)methylamino]-1-piperidyl]-2-oxo-ethyl]-3-[2-(difluoromethoxy)-5-methylsulfanyl-phenyl]pyrazol-4-yl]pyrazolo[1,5-a]pyrimidine-3-carboxamide], the inhibition constant (Ki) in assay [1] came to 0.27 nM; in assay [2] it was 0.45 nM. In addition, the half-inhibitory concentration (IC50) in assay [3] came out at 20 nM.

As to `CSc1ccc(OC(F)F)c(-c2nn(CC(=O)N3CCC(N(C)CC4(C#N)CC4)CC3)cc2NC(=O)c2cnn3cccnc23)c1` [Example 42, N-[1-[2-[4-[(1-cyanocyclopropyl)methyl-methyl-amino]-1-piperidyl]-2-oxo-ethyl]-3-[2-(difluoromethoxy)-5-methylsulfanyl-phenyl]pyrazol-4-yl]pyrazolo[1,5-a]pyrimidine-3-carboxamide], the Ki in assay [1] came out at 0.17 nM; in assay [2], 0.26 nM. Also, the IC50 in assay [3] was 13 nM.

`CSc1ccc(OC(F)F)c(-c2nn(CC(=O)N3CCC(CN4CCC[C@H]4C(=O)N(C)C)CC3)cc2NC(=O)c2cnn3cccnc23)c1` [Example 43, N-[3-[2-(difluoromethoxy)-5-methylsulfanyl-phenyl]-1-[2-[4-[[(2S)-2-(dimethylcarbamoyl)pyrrolidin-1-yl]methyl]-1-piperidyl]-2-oxo-ethyl]pyrazol-4-yl]pyrazolo[1,5-a]pyrimidine-3-carboxamide]: the results for the Ki in assay [1] and in assay [2] were 0.35 nM and 0.87 nM, respectively. Also, the IC50 in assay [3] came to 76 nM.

In the case of `CNC(=O)[C@@H]1CCCN1CC1CCN(C(=O)Cn2cc(NC(=O)c3cnn4cccnc34)c(-c3cc(SC)ccc3OC(F)F)n2)CC1` [Example 44, N-[3-[2-(difluoromethoxy)-5-methylsulfanyl-phenyl]-1-[2-[4-[[(2S)-2-(methylcarbamoyl)pyrrolidin-1-yl]methyl]-1-piperidyl]-2-oxo-ethyl]pyrazol-4-yl]pyrazolo[1,5-a]pyrimidine-3-carboxamide], the inhibition constant (Ki) in assay [1] worked out at 0.38 nM; in assay [2], 0.72 nM. For the same molecule, the IC50 in assay [3] was 73 nM.

In the case of `CSc1ccc(OC(F)F)c(-c2nn(CC(=O)N3CCC(N4CCCOCC4)CC3)cc2NC(=O)c2cnn3cccnc23)c1` [Example 45, N-[3-[2-(difluoromethoxy)-5-methylsulfanyl-phenyl]-1-[2-[4-(1,4-oxazepan-4-yl)-1-piperidyl]-2-oxo-ethyl]pyrazol-4-yl]pyrazolo[1,5-a]pyrimidine-3-carboxamide], the Ki in assay [1] worked out at 0.32 nM; in assay [2], 0.68 nM. Besides, in assay [3], the IC50 stood at 44 nM.
